Measured values taken from ChEMBL document CHEMBL5344481, “Design, synthesis and biological evaluation of rhein-piperazine-furanone hybrids as potential anticancer agents” (RSC Med Chem, 2024).

Assays:
A549 = experiment: Anticancer activity against human A549 cells incubated for 48 hrs by MTT assay; assay type: functional, cell-based; details: A549, 48 h
[1] = Cytotoxicity against human WI-38 cells incubated for 48 hrs by MTT assay; assay type: toxicity, cell-based
[2] = Selectivity index, ratio of IC50 for human WI-38 cells to IC50 for human A549 cells; assay type: toxicity; details: WI-38 cells versus A549 cells, read-out: Ratio IC50
NCI-H460 [3] = experiment: Induction of apoptosis in human NCI-H460 cells assessed as total apoptotic cells at 0.8 uM incubated for 48 hrs by Annexin V-FITC/PI staining based flow cytometry (reference value: 6.85 %); assay type: functional
NCI-H460 [4] = experiment: Induction of apoptosis in human NCI-H460 cells assessed as necrotic cells at 80 uM incubated for 48 hrs by Annexin V-FITC/PI staining based flow cytometry (reference value: 0.02 to 0.06 %); assay type: functional
NCI-H460 [5] = experiment: Induction of apoptosis in human NCI-H460 cells assessed as viable cells at 0.8 uM incubated for 48 hrs by Annexin V-FITC/PI staining based flow cytometry (reference value: 92.82 to 93.46 %); assay type: functional; details: read-out: Activity
NCI-H460 [6] = experiment: Induction of apoptosis in human NCI-H460 cells assessed as necrotic cells at 8 uM incubated for 48 hrs by Annexin V-FITC/PI staining based flow cytometry (reference value: 0.02 to 0.06 %); assay type: functional
Calu-1 = experiment: Anticancer activity against human Calu-1 cells incubated for 48 hrs by MTT assay; assay type: functional, cell-based; details: Calu-1, 48 h
NCI-H460 [7] = experiment: Induction of apoptosis in human NCI-H460 cells assessed as […] cells at 0.8 uM incubated for 48 hrs by Annexin V-FITC/PI staining based flow cytometry (reference value: 4.31 to 4.76 %); assay type: functional
NCI-H460 [8] = experiment: Induction of apoptosis in human NCI-H460 cells assessed as total apoptotic cells at 8 uM incubated for 48 hrs by Annexin V-FITC/PI staining based flow cytometry (reference value: 6.85 %); assay type: functional
[9] = Selectivity index, ratio of IC50 for human WI-38 cells to IC50 for human Calu-1 cells; assay type: toxicity; details: WI-38 cells versus Calu-1 cells, read-out: Ratio IC50
NCI-H460 [10] = experiment: Induction of apoptosis in human NCI-H460 cells assessed as […] cells at 80 uM incubated for 48 hrs by Annexin V-FITC/PI staining based flow cytometry (reference value: 4.31 to 4.76 %); assay type: functional
[11] = Cytotoxicity against human MCF-10A cells incubated for 48 hrs by MTT assay; assay type: toxicity, cell-based
[12] = Selectivity index, ratio of IC50 for human WI-38 cells to IC50 for human H460 cells; assay type: toxicity; details: WI-38 cells versus H460 cells, read-out: Ratio IC50
SK-BR-3 = experiment: Anticancer activity against human SK-BR-3 cells incubated for 48 hrs by MTT assay; assay type: functional, cell-based; details: SK-BR-3, 48 h
NCI-H460 [13] = experiment: Induction of apoptosis in human NCI-H460 cells assessed as […] cells at 0.8 uM incubated for 48 hrs by Annexin V-FITC/PI staining based flow cytometry (reference value: 2.17 to 2.38 %); assay type: functional
SK-OV-3 = experiment: Anticancer activity against human SK-OV-3 cells incubated for 48 hrs by MTT assay; assay type: functional, cell-based; details: SK-OV-3, 48 h
NCI-H460 [14] = experiment: Induction of apoptosis in human NCI-H460 cells assessed as total apoptotic cells at 80 uM incubated for 48 hrs by Annexin V-FITC/PI staining based flow cytometry (reference value: 6.85 %); assay type: functional
[15] = Cytotoxicity against human KGN cells incubated for 48 hrs by MTT assay; assay type: toxicity, cell-based
HeLa = experiment: Anticancer activity against human HeLa cells incubated for 48 hrs by MTT assay; assay type: functional, cell-based
786-0 = experiment: Anticancer activity against human 786-0 cells incubated for 48 hrs by MTT assay; assay type: functional, cell-based; details: 786-0, 48 h
HCT-116 = experiment: Anticancer activity against human HCT-116 cells incubated for 48 hrs by MTT assay; assay type: functional, cell-based; details: HCT-116, 48 h
NCI-H460 [16] = experiment: Induction of apoptosis in human NCI-H460 cells assessed as necrotic cells at 0.8 uM incubated for 48 hrs by Annexin V-FITC/PI staining based flow cytometry (reference value: 0.02 to 0.06 %); assay type: functional
PC-9 = experiment: Anticancer activity against human PC-9 cells incubated for 48 hrs by MTT assay; assay type: functional, cell-based; details: PC-9, 48 h
NCI-H460 [17] = experiment: Anticancer activity against human NCI-H460 cells incubated for 48 hrs by MTT assay; assay type: functional, cell-based; details: NCI-H460, 48 h
NCI-H460 [18] = experiment: Induction of apoptosis in human NCI-H460 cells assessed as viable cells at 80 uM incubated for 48 hrs by Annexin V-FITC/PI staining based flow cytometry (reference value: 92.82 to 93.46 %); assay type: functional; details: read-out: Activity
Huh-7 = experiment: Anticancer activity against human Huh-7 cells incubated for 48 hrs by MTT assay; assay type: functional, cell-based; details: Huh-7, 48 h
NCI-H460 [19] = experiment: Induction of apoptosis in human NCI-H460 cells assessed as […] cells at 80 uM incubated for 48 hrs by Annexin V-FITC/PI staining based flow cytometry (reference value: 2.17 to 2.38 %); assay type: functional
[20] = Cytotoxicity against human HEK-293T cells incubated for 48 hrs by MTT assay; assay type: toxicity, cell-based
[21] = Selectivity index, ratio of IC50 for human MCF-10A cells to IC50 for human SK-BR-3 cells; assay type: toxicity; details: MCF-10A cells versus SK-BR-3 cells, read-out: Ratio IC50
NCI-H460 [22] = experiment: Induction of apoptosis in human NCI-H460 cells assessed as viable cells at 8 uM incubated for 48 hrs by Annexin V-FITC/PI staining based flow cytometry (reference value: 92.82 to 93.46 %); assay type: functional; details: read-out: Activity
NCI-H460 [23] = experiment: Induction of apoptosis in human NCI-H460 cells assessed as […] cells at 8 uM incubated for 48 hrs by Annexin V-FITC/PI staining based flow cytometry (reference value: 4.31 to 4.76 %); assay type: functional
NCI-H460 [24] = experiment: Induction of apoptosis in human NCI-H460 cells assessed as […] cells at 8 uM incubated for 48 hrs by Annexin V-FITC/PI staining based flow cytometry (reference value: 2.17 to 2.38 %); assay type: functional

## CC(C)[C@@H]1CC[C@@H](C)C[C@H]1O[C@H]1OC(=O)C(Cl)=C1N1CCN(C(=O)c2cc(O)c3c(c2)C(=O)c2cccc(O)c2C3=O)CC1
A549
  IC50: 46.5 µM
[1]
  IC50 at 48 h: 296 µM
[2]
  selectivity ratio: 6

## CC(=O)Oc1cccc2c1C(=O)c1c(OC(C)=O)cc(C(=O)N3CCN(C4=C(Cl)C(=O)OC4O[C@@H]4CC5CCC4(C)C5(C)C)CC3)cc1C2=O (some centres undefined)
A549
  IC50: 69.1 µM
[1]
  IC50 at 48 h: 34.7 µM
[2]
  selectivity ratio: 1

## CC(=O)Oc1cccc2c1C(=O)c1c(OC(C)=O)cc(C(=O)N3CCN(C4=C(Br)C(=O)O[C@@H]4O[C@@H]4C[C@H](C)CC[C@H]4C(C)C)CC3)cc1C2=O
A549
  IC50: 46.9 µM
[1]
  IC50 at 48 h: 24.9 µM
[2]
  selectivity ratio: 1

## COC1OC(=O)C(Cl)=C1N1CCN(C(=O)c2cc(OC(C)=O)c3c(c2)C(=O)c2cccc(OC(C)=O)c2C3=O)CC1 (centres undefined)
NCI-H460 [3]
  Activity: 9.38%
NCI-H460 [4]
  Activity: 0.07%
NCI-H460 [5]
  viability at 0.8 µM: 89.5%
NCI-H460 [6]
  Activity: 0.06%
Calu-1
  IC50: 15.4 µM
NCI-H460 [7]
  Activity: 5.09%
NCI-H460 [8]
  Activity: 37.72%
[9]
  selectivity ratio: 5
NCI-H460 [10]
  Activity: 25.81%
[11]
  IC50 at 48 h: 17 µM
A549
  IC50: 5.74 µM
[1]
  IC50 at 48 h: 69.3 µM
[12]
  selectivity ratio: 16
SK-BR-3
  IC50: 19.1 µM
NCI-H460 [13]
  Activity: 3.49%
SK-OV-3
  IC50: 60.5 µM
NCI-H460 [14]
  Activity: 56.57%
[15]
  IC50 at 48 h: 76.4 µM
HeLa
  IC50: 30.5 µM
786-0
  IC50: 20.7 µM
HCT-116
  IC50: 13.8 µM
NCI-H460 [16]
  Activity: 0.12%
PC-9
  IC50: 5.78 µM
[2]
  selectivity ratio: 12
NCI-H460 [17]
  IC50: 4.35 µM
NCI-H460 [18]
  viability at 80 µM: 42.6%
Huh-7
  IC50: 21 µM
NCI-H460 [19]
  Activity: 29.91%
[20]
  IC50 at 48 h: 9.15 µM
[21]
  selectivity ratio: 1
NCI-H460 [22]
  viability at 8 µM: 61.1%
NCI-H460 [23]
  Activity: 18.14%
NCI-H460 [24]
  Activity: 18.88%

## CC1(C)C2CCC1(C)[C@H](OC1OC(=O)C(Cl)=C1N1CCN(C(=O)c3cc(O)c4c(c3)C(=O)c3cccc(O)c3C4=O)CC1)C2 (some centres undefined)
A549
  IC50: 106 µM
[1]
  IC50 at 48 h: 173 µM
[2]
  selectivity ratio: 2

## CC(=O)Oc1cccc2c1C(=O)c1c(OC(C)=O)cc(C(=O)N3CCN(C4=C(Br)C(=O)OC4O[C@@H]4CC5CCC4(C)C5(C)C)CC3)cc1C2=O (some centres undefined)
A549
  IC50: 86.7 µM
[1]
  IC50 at 48 h: 43.1 µM
[2]
  selectivity ratio: 1

## O=C(O)c1cc(O)c2c(c1)C(=O)c1cccc(O)c1C2=O [RHEIN]
A549
  IC50: 266 µM
[2]
  selectivity ratio: 1

## Nc1ccn([C@@H]2O[C@H](CO)[C@@H](O)[C@@H]2O)c(=O)n1 [CYTARABINE]
[1]
  IC50 at 48 h: 493 µM
[2]
  selectivity ratio: 2

## COC1OC(=O)C(Br)=C1N1CCN(C(=O)c2cc(OC(C)=O)c3c(c2)C(=O)c2cccc(OC(C)=O)c2C3=O)CC1 (centres undefined)
A549
  IC50: 5.49 µM
[1]
  IC50 at 48 h: 39.1 µM
[2]
  selectivity ratio: 7

## CC1(C)C2CCC1(C)[C@H](OC1OC(=O)C(Br)=C1N1CCN(C(=O)c3cc(O)c4c(c3)C(=O)c3cccc(O)c3C4=O)CC1)C2 (some centres undefined)
A549
  IC50: 112 µM
[1]
  IC50 at 48 h: 152 µM
[2]
  selectivity ratio: 1

## CC(=O)Oc1cccc2c1C(=O)c1c(OC(C)=O)cc(C(=O)N3CCN(C4=C(Cl)C(=O)O[C@@H]4O[C@@H]4C[C@H](C)CC[C@H]4C(C)C)CC3)cc1C2=O
A549
  IC50: 115 µM
[1]
  IC50 at 48 h: 66.3 µM
[2]
  selectivity ratio: 1

## CC(C)[C@@H]1CC[C@@H](C)C[C@H]1O[C@H]1OC(=O)C(Br)=C1N1CCN(C(=O)c2cc(O)c3c(c2)C(=O)c2cccc(O)c2C3=O)CC1
A549
  IC50: 117 µM
[1]
  IC50 at 48 h: 167 µM
[2]
  selectivity ratio: 1
